Assay results published in patent US20080026417A1, “ASSAYS FOR TRICHOMONAL AND OTHER HYDROLASES” (priority 2002, published 2008).
Peptide text beside a SMILES is read from it. * marks the point of attachment. NH(4-MeO-2-naphthyl) = COc1cc(N*)cc2ccccc12; βNA = c1ccc2cc(N*)ccc2c1; Cbz = O=C(OCc1ccccc1)*; Bz = O=C(c1ccccc1)*

Experiments:
trichomonal hydrolases [1] = assay: Experiment 13: hydrolysis of peptide substrates by trichomonal hydrolases at low pH, no vaginal fluid; assay type: biochemical, Trichomonas vaginalis; set-up: key: −: No red color produced; +: Clearly visible red color produced; ++: Moderately intense red color produced; +++: Very intense red color produced; details: without vaginal fluid; threonine buffer pH 2.4; 2 mM substrate solution; 10 min 25° C.; Fast Garnet
Description: Forty μL of each substrate was pipetted into duplicate wells of a microtiter plate. The plate was covered with tape, placed into a 25° C. incubator, and allowed to warm. A diluted enzyme mixture was prepared by mixing one part (v/v) freshly-thawed trichomonal hydrolase solution to nine parts 2 mM L-cysteine solution. Forty μL of this mixture was added to one well of each pair of duplicate wells. For negative controls, 40 μL of 2 mM L-cysteine was added to the second well in each pair of duplicate wells. The plate was returned to the incubator and incubated for ten minutes. Forty μL of SDS/acetate solution was added to each well, followed by 40 μL of Fast Garnet solution. The intensity of color that developed in each well after five minutes was visually scored using the color scale presented in Table 13.1.

trichomonal hydrolases [2] = assay: Experiment 12: hydrolysis of ZRRR-MNA by trichomonal hydrolases in four buffers; assay type: biochemical, Trichomonas vaginalis; details: for Score: substrate ZRRR-MNA, Fast Red RL, 0-9 scale
Description: Fifty μL of each buffer solution, at pH 2.0, 2.2, 2.4, or 2.6, was pipetted into separate wells of a microtiter plate. Twenty-five μL of 8 mM ZRRR-MNA and 25 μL of 10% trichomonal hydrolase solution were added to each well, and 20 μL were then removed from each well for measurement of final pH. Ten minutes after the mixtures were made, a Dacron swab was inserted into each well to absorb the liquid, then each swab was rubbed on a Fast Red RL film. The intensity of pink color that developed on each swab after five minutes was visually scored in 0.5 unit increments using the 0-9 color scale presented in Table 11.1 of the preceding example.

Compound | Color Score (trichomonal hydrolases [1]) | further results
O=C(Nc1ccc2ccccc2c1)[C@@H]1CCCN1 [Pro-βNA] | − | 
Cbz-Arg-Arg-βNA | − | 
N=C(N)NCCC[C@H](NC(=O)[C@H](Cc1ccccc1)NC(=O)[C@@H]1CCCN1C(=O)c1ccccc1)C(=O)Nc1ccc2ccccc2c1 [BZ-Pro-Phe-Arg-βNA] (Bz-Pro-Phe-Arg-βNA) | − | 
CSCC[C@H](NC(=O)[C@@H](N)CO)C(=O)Nc1ccc2ccccc2c1 [Ser-Met-βNA] (H-Ser-Met-βNA) | − | 
COc1cc(NC(=O)[C@H](CCCNC(=N)N)NC(=O)c2ccccc2)cc2ccccc12 [BZ-Arg-MNA] | − | 
O=C(O)CC(O)C(=O)O (racemic) [DL-malic acid] |  | Score (trichomonal hydrolases [2]; pH 2.0 Buffer (100 mM)): 4.5; Final pH (trichomonal hydrolases [2]; pH 2.0 Buffer after mixing with substrate and trichomonal hydrolase solution): pH 2.4; Score (trichomonal hydrolases [2]; pH 2.2 Buffer (100 mM)): 5.5; Final pH (trichomonal hydrolases [2]; pH 2.2 Buffer after mixing with substrate and trichomonal hydrolase solution): pH 2.7; Score (trichomonal hydrolases [2]; pH 2.4 Buffer (100 mM)): 6.0; Final pH (trichomonal hydrolases [2]; pH 2.4 Buffer after mixing with substrate and trichomonal hydrolase solution): pH 2.8; Score (trichomonal hydrolases [2]; pH 2.6 Buffer (100 mM)): 6.0; Final pH (trichomonal hydrolases [2]; pH 2.6 Buffer after mixing with substrate and trichomonal hydrolase solution): pH 2.9
C[C@H](N)C(=O)Nc1ccc2ccccc2c1 [Ala-βNA] | − | 
COc1cc(NC(=O)C(CCCN=C(N)N)NC(=O)C2CCCN2)cc2ccccc12 (stereo not drawn) [Pro-Arg-MNA] | − | 
COc1cc(NC(=O)C(CCCNC(=N)N)NC(=O)C2CCCN2C(=O)CNC(=O)OCc2ccccc2)cc2ccccc12 (stereo not drawn) [CBZ-Gly-Pro-Arg-MNA] | − | 
Pro-MNA | − | 
N[C@@H](CO)C(=O)N[C@@H](Cc1ccc(O)cc1)C(=O)Nc1ccc2ccccc2c1 [Ser-Tyr-βNA] (H-Ser-Tyr-βNA) | − | 
CC(C)C[C@H](NC(=O)CNC(=O)CNC(=O)OCc1ccccc1)C(=O)Nc1ccc2ccccc2c1 [CBZ-Gly-Gly-Leu-βNA] (Cbz-Gly-Gly-Leu-βNA) | − | 
NCCCC[C@H](N)C(=O)Nc1ccc2ccccc2c1 [Lys-βNA] | − | 
COc1cc(NC(=O)[C@H](CCCNC(=N)N)NC(=O)CNC(=O)CNC(=O)OCc2ccccc2)cc2ccccc12 [CBZ-Gly-Gly-Arg-MNA] | − | 
COc1cc(NC(=O)C(CC(C)C)NC(=O)C(Cc2ccccc2)NC(=O)CNC(=O)C(CCCNC(=N)N)NC(=O)OCc2ccccc2)cc2ccccc12 (stereo not drawn) [CBZ-Arg-Gly-Phe-Leu-MNA] (Cbz-RGFL-{NH(4-MeO-2-naphthyl)}; configuration not given here) | − | 
COc1cc(NC(=O)C(Cc2ccccc2)NC(=O)CNC(=O)C(N)CCC(N)=O)cc2ccccc12 (stereo not drawn) [Gln-Gly-Phe-MNA] | − | 
CC(C)C[C@H](N)C(=O)N[C@@H](C)C(=O)Nc1ccc2ccccc2c1 [Leu-Ala-βNA] (H-Leu-Ala-βNA) | − | 
NCC(=O)N[C@@H](Cc1c[nH]c2ccccc12)C(=O)Nc1ccc2ccccc2c1 [Gly-Trp-βNA] (H-Gly-Trp-βNA) | − | 
COc1cc(NC(=O)[C@H](CCCNC(=N)N)NC(=O)[C@H](CCCCN)NC(=O)[C@H](CCCCN)NC(=O)OCc2ccccc2)cc2ccccc12 [CBZ-Lys-Lys-Arg-MNA] | + | 
COc1cc(NC(=O)C(CCCNC(=N)N)NC(=O)C(C)NC(=O)C(CCC(N)=O)NC(=O)OC(C)(C)C)cc2ccccc12 (stereo not drawn) [BOC-Gln-Ala-Arg-MNA] | − | 
COc1cc(NC(=O)[C@H](C)NC(=O)[C@H](C)NC(=O)[C@H](CCC(N)=O)NC(=O)OC(C)(C)C)cc2ccccc12 [BOC-Gln-Ala-Ala-MNA] | − | 
N=C(N)NCCC[C@H](NC(=O)[C@@H](N)Cc1ccccc1)C(=O)Nc1ccc2ccccc2c1 [Phe-Arg-βNA] (H-Phe-Arg-βNA) | − | 
CC(C)[C@H](N)C(=O)Nc1ccc2ccccc2c1 [Val-βNA] | − | 
N=C(N)NCCC[C@H](NC(=O)[C@@H](N)CCCNC(=N)N)C(=O)Nc1ccc2ccccc2c1 [Arg-Arg-βNA] (H-Arg-Arg-βNA) | − | 
COc1cc(NC(=O)[C@@H](N)Cc2ccccc2)cc2ccccc12 [Phe-MNA] | − | 
N[C@@H](Cc1cnc[nH]1)C(=O)Nc1ccc2ccccc2c1 [His-βNA] | − | 
NC(N)=NCCC[C@H](N)C(=O)Nc1ccc2ccccc2c1 [Arg-βNA] | − | 
N[C@@H](CO)C(=O)Nc1ccc2ccccc2c1 [Ser-βNA] | − | 
